From ChEMBL document CHEMBL1212841, “Mycenaaurin A, an antibacterial polyene pigment from the fruiting bodies of Mycena aurantiomarginata” (2010)

Tested on: Bacillus pumilus
Assay: Antimicrobial activity Bacillus pumilus at 0.5 umol/disk by disk diffusion method
Format: functional

Question: With CC(=O)N[C@@H](CCO[C@H](C)C/C=C/CC[C@@H](O)C/C=C/C=C/C=C/C=C/C=C/C=C/c1cc(O)c(CC[C@H](N)C(=O)O)c(=O)o1)C(=O)O [MYCENAAURIN A] as the compound, how does the “inhibition zone (IZ)” value read?
Answer: Its value is 2.5 cm.
